From PubChem BioAssay (NCI)
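How tested: cells in 96-well plates exposed to compound for 48 hours at five concentrations. GI50: concentration for 50% inhibition of growth. At the TGI there is no net growth.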

What was measured:
Assay in all cases: NCI tumour cell line growth inhibition, 48 h
CCRF-CEM leukemia = test system: CCRF-CEM leukemia
SF-268 CNS = test system: SF-268 CNS
MALME-3M melanoma = test system: MALME-3M melanoma
OVCAR-3 ovarian = test system: OVCAR-3 ovarian
M14 melanoma = test system: M14 melanoma
IGROV1 ovarian = test system: IGROV1 ovarian
SK-MEL-5 melanoma = test system: SK-MEL-5 melanoma
HS 578T breast = test system: HS 578T breast
SNB-75 CNS = test system: SNB-75 CNS
K-562 leukemia = test system: K-562 leukemia
SK-MEL-28 melanoma = test system: SK-MEL-28 melanoma
OVCAR-5 ovarian = test system: OVCAR-5 ovarian
T-47D breast = test system: T-47D breast
SF-295 CNS = test system: SF-295 CNS
UACC-62 melanoma = test system: UACC-62 melanoma
MDA-MB-468 breast = test system: MDA-MB-468 breast
UO-31 renal = test system: UO-31 renal
SW-620 colon = test system: SW-620 colon
KM12 colon = test system: KM12 colon
HL-60(TB) leukemia = test system: HL-60(TB) leukemia
PC-3 prostate = test system: PC-3 prostate
NCI-H460 lung = test system: NCI-H460 lung
TK-10 renal = test system: TK-10 renal
MDA-MB-435 = test system: MDA-MB-435
NCI-H226 lung = test system: NCI-H226 lung
LOX IMVI melanoma = test system: LOX IMVI melanoma
SK-MEL-2 melanoma = test system: SK-MEL-2 melanoma
HOP-62 NSCLC = test system: HOP-62 NSCLC
HCT-15 colon = test system: HCT-15 colon
U251 CNS = test system: U251 CNS
NCI-H23 lung = test system: NCI-H23 lung
COLO 205 colon = test system: COLO 205 colon
RXF 393 renal = test system: RXF 393 renal
MDA-MB-231 breast = test system: MDA-MB-231 breast
BT-549 breast = test system: BT-549 breast
UACC-257 melanoma = test system: UACC-257 melanoma
SF-539 CNS = test system: SF-539 CNS
HT29 colon = test system: HT29 colon
RPMI-8226 leukemia = test system: RPMI-8226 leukemia
ACHN renal = test system: ACHN renal
HCC-2998 colon = test system: HCC-2998 colon
786-0 renal = test system: 786-0 renal
MOLT-4 leukemia = test system: MOLT-4 leukemia
OVCAR-4 ovarian = test system: OVCAR-4 ovarian
CAKI-1 renal = test system: CAKI-1 renal
SN12C renal = test system: SN12C renal
NCI-H522 lung = test system: NCI-H522 lung
EKVX NSCLC = test system: EKVX NSCLC
NCI/ADR-RES ovarian = test system: NCI/ADR-RES ovarian
SK-OV-3 ovarian = test system: SK-OV-3 ovarian
OVCAR-8 ovarian = test system: OVCAR-8 ovarian
MCF7 breast = test system: MCF7 breast
HOP-92 NSCLC = test system: HOP-92 NSCLC
A498 renal = test system: A498 renal
SNB-19 CNS = test system: SNB-19 CNS
SR leukemia = test system: SR leukemia
A549 NSCLC = test system: A549 NSCLC
HCT-116 colon = test system: HCT-116 colon
DU-145 prostate = test system: DU-145 prostate

Q: How did the GI50 (CCRF-CEM leukemia) turn out when COc1ccccc1/C=C/c1cccc(NC(=S)NCCCCN(C)C)c1 was run?
A: 12 µM

Q: And the TGI (CCRF-CEM leukemia)?
A: 29.5 µM

Q: What about the GI50 (SF-268 CNS) of the same compound?
A: 15.3 µM

Q: And the TGI (SF-268 CNS)?
A: 34.5 µM

Q: And the GI50 (MALME-3M melanoma)?
A: 15.8 µM

Q: And the TGI (MALME-3M melanoma)?
A: 29.8 µM

Q: And the GI50 (OVCAR-3 ovarian)?
A: 10.7 µM

Q: What about the TGI (OVCAR-3 ovarian) of the same compound?
A: 26 µM

Q: What about the GI50 (M14 melanoma) of the same compound?
A: 12.1 µM

Q: And the TGI (M14 melanoma)?
A: 26.5 µM

Q: And the GI50 (IGROV1 ovarian)?
A: 17 µM

Q: What about the TGI (IGROV1 ovarian) of the same compound?
A: 32.3 µM

Q: What about the GI50 (SK-MEL-5 melanoma) of the same compound?
A: 14 µM

Q: And the TGI (SK-MEL-5 melanoma)?
A: 26.9 µM

Q: And the GI50 (HS 578T breast)?
A: 18.3 µM

Q: What about the TGI (HS 578T breast) of the same compound?
A: 45.2 µM

Q: What about the GI50 (SNB-75 CNS) of the same compound?
A: 12.1 µM

Q: What about the TGI (SNB-75 CNS) of the same compound?
A: 27.2 µM

Q: And the GI50 (K-562 leukemia)?
A: 3.07 µM

Q: And the TGI (K-562 leukemia)?
A: 13.3 µM

Q: What about the GI50 (SK-MEL-28 melanoma) of the same compound?
A: 15.9 µM

Q: What about the TGI (SK-MEL-28 melanoma) of the same compound?
A: 29.5 µM

Q: What about the GI50 (OVCAR-5 ovarian) of the same compound?
A: 15.3 µM

Q: And the TGI (OVCAR-5 ovarian)?
A: 29 µM

Q: And the GI50 (T-47D breast)?
A: 11.6 µM

Q: What about the TGI (T-47D breast) of the same compound?
A: 27.3 µM

Q: What about the GI50 (SF-295 CNS) of the same compound?
A: 12.5 µM

Q: What about the TGI (SF-295 CNS) of the same compound?
A: 26.1 µM

Q: What about the GI50 (UACC-62 melanoma) of the same compound?
A: 15.5 µM

Q: What about the TGI (UACC-62 melanoma) of the same compound?
A: 29.3 µM

Q: What about the GI50 (MDA-MB-468 breast) of the same compound?
A: 10.1 µM

Q: And the TGI (MDA-MB-468 breast)?
A: 22.6 µM

Q: What about the GI50 (UO-31 renal) of the same compound?
A: 13.7 µM

Q: What about the TGI (UO-31 renal) of the same compound?
A: 27.7 µM

Q: What about the GI50 (SW-620 colon) of the same compound?
A: 14.5 µM

Q: And the TGI (SW-620 colon)?
A: 31.7 µM

Q: What about the GI50 (KM12 colon) of the same compound?
A: 16.1 µM

Q: What about the TGI (KM12 colon) of the same compound?
A: 32.1 µM

Q: What about the GI50 (HL-60(TB) leukemia) of the same compound?
A: 12.4 µM

Q: What about the TGI (HL-60(TB) leukemia) of the same compound?
A: 29.7 µM

Q: And the GI50 (PC-3 prostate)?
A: 14.2 µM

Q: What about the TGI (PC-3 prostate) of the same compound?
A: 30.5 µM

Q: And the GI50 (NCI-H460 lung)?
A: 12.5 µM

Q: And the TGI (NCI-H460 lung)?
A: 27.8 µM

Q: What about the GI50 (TK-10 renal) of the same compound?
A: 17.3 µM

Q: And the TGI (TK-10 renal)?
A: 32.3 µM

Q: And the GI50 (MDA-MB-435)?
A: 3.82 µM

Q: What about the TGI (MDA-MB-435) of the same compound?
A: 15.7 µM

Q: And the GI50 (NCI-H226 lung)?
A: 10.2 µM

Q: What about the TGI (NCI-H226 lung) of the same compound?
A: 27.4 µM

Q: What about the GI50 (LOX IMVI melanoma) of the same compound?
A: 11.7 µM

Q: What about the TGI (LOX IMVI melanoma) of the same compound?
A: 25 µM

Q: And the GI50 (SK-MEL-2 melanoma)?
A: 16.1 µM

Q: And the TGI (SK-MEL-2 melanoma)?
A: 31.3 µM

Q: And the GI50 (HOP-62 NSCLC)?
A: 16.2 µM

Q: And the TGI (HOP-62 NSCLC)?
A: 32.3 µM

Q: What about the GI50 (HCT-15 colon) of the same compound?
A: 8.09 µM

Q: What about the TGI (HCT-15 colon) of the same compound?
A: 21.6 µM

Q: What about the GI50 (U251 CNS) of the same compound?
A: 17.6 µM

Q: What about the TGI (U251 CNS) of the same compound?
A: 33.3 µM

Q: What about the GI50 (NCI-H23 lung) of the same compound?
A: 15.2 µM

Q: And the TGI (NCI-H23 lung)?
A: 30.4 µM

Q: What about the GI50 (COLO 205 colon) of the same compound?
A: 13.6 µM

Q: And the TGI (COLO 205 colon)?
A: 29.9 µM

Q: What about the GI50 (RXF 393 renal) of the same compound?
A: 11.8 µM

Q: And the TGI (RXF 393 renal)?
A: 26.2 µM

Q: And the GI50 (MDA-MB-231 breast)?
A: 14.1 µM

Q: What about the TGI (MDA-MB-231 breast) of the same compound?
A: 27.8 µM

Q: What about the GI50 (BT-549 breast) of the same compound?
A: 17.6 µM

Q: And the TGI (BT-549 breast)?
A: 33.3 µM

Q: What about the GI50 (UACC-257 melanoma) of the same compound?
A: 16.3 µM

Q: And the TGI (UACC-257 melanoma)?
A: 31.7 µM

Q: And the GI50 (SF-539 CNS)?
A: 13.4 µM

Q: And the TGI (SF-539 CNS)?
A: 26.2 µM

Q: And the GI50 (HT29 colon)?
A: 5.8 µM

Q: And the TGI (HT29 colon)?
A: 20.6 µM

Q: And the GI50 (RPMI-8226 leukemia)?
A: 17.2 µM

Q: And the TGI (RPMI-8226 leukemia)?
A: 51.8 µM

Q: And the GI50 (ACHN renal)?
A: 15.7 µM

Q: What about the TGI (ACHN renal) of the same compound?
A: 29.1 µM

Q: And the GI50 (HCC-2998 colon)?
A: 13.2 µM

Q: And the TGI (HCC-2998 colon)?
A: 27.2 µM

Q: What about the GI50 (786-0 renal) of the same compound?
A: 15.8 µM

Q: What about the TGI (786-0 renal) of the same compound?
A: 33.4 µM

Q: And the GI50 (MOLT-4 leukemia)?
A: 13.3 µM

Q: And the TGI (MOLT-4 leukemia)?
A: 32.2 µM

Q: What about the GI50 (OVCAR-4 ovarian) of the same compound?
A: 14.9 µM

Q: And the TGI (OVCAR-4 ovarian)?
A: 29.6 µM

Q: What about the GI50 (CAKI-1 renal) of the same compound?
A: 14.5 µM

Q: And the TGI (CAKI-1 renal)?
A: 27.8 µM

Q: What about the GI50 (SN12C renal) of the same compound?
A: 15 µM

Q: And the TGI (SN12C renal)?
A: 29 µM

Q: And the GI50 (NCI-H522 lung)?
A: 15.2 µM

Q: What about the TGI (NCI-H522 lung) of the same compound?
A: 31.3 µM

Q: What about the GI50 (EKVX NSCLC) of the same compound?
A: 14.9 µM

Q: What about the TGI (EKVX NSCLC) of the same compound?
A: 31.3 µM

Q: And the GI50 (NCI/ADR-RES ovarian)?
A: 14.9 µM

Q: And the TGI (NCI/ADR-RES ovarian)?
A: 37.9 µM

Q: And the GI50 (SK-OV-3 ovarian)?
A: 17 µM

Q: And the TGI (SK-OV-3 ovarian)?
A: 35.1 µM

Q: And the GI50 (OVCAR-8 ovarian)?
A: 17 µM

Q: And the TGI (OVCAR-8 ovarian)?
A: 34.5 µM

Q: And the GI50 (MCF7 breast)?
A: 10.4 µM

Q: What about the TGI (MCF7 breast) of the same compound?
A: 24.2 µM

Q: And the GI50 (HOP-92 NSCLC)?
A: 10.1 µM

Q: What about the TGI (HOP-92 NSCLC) of the same compound?
A: 25.9 µM

Q: What about the GI50 (A498 renal) of the same compound?
A: 16.5 µM

Q: And the TGI (A498 renal)?
A: 30.3 µM

Q: What about the GI50 (SNB-19 CNS) of the same compound?
A: 17.5 µM

Q: What about the TGI (SNB-19 CNS) of the same compound?
A: 34.7 µM

Q: And the GI50 (SR leukemia)?
A: 11.7 µM

Q: And the TGI (SR leukemia)?
A: 35.4 µM

Q: What about the GI50 (A549 NSCLC) of the same compound?
A: 16.3 µM

Q: What about the TGI (A549 NSCLC) of the same compound?
A: 34.4 µM

Q: What about the GI50 (HCT-116 colon) of the same compound?
A: 11.8 µM

Q: And the TGI (HCT-116 colon)?
A: 28.6 µM

Q: What about the GI50 (DU-145 prostate) of the same compound?
A: 15.9 µM

Q: And the TGI (DU-145 prostate)?
A: 32.5 µM
